Assay results published in publication PMC9964746, “Mechanism of Action and Structure–Activity Relationships of Tetracyclic Small Molecules Acting as Universal Positive Allosteric Modulators of the Cholecystokinin Receptor” (Membranes, 2023).
“And” between values parts separate entries of the source, which are not always exact repeats. Equal values may be shown once.

Legend:
Type in all cases: cell-based
CCK1R [1] = molecular target: T1, CCK1R (Homo sapiens, UniProt P32238); assay: IP-One accumulation TR-FRET assay, PAM format, HEK-293 CCK1R cells; parameters: expressed in transfected cells; host or cells: HEK-293; conditions: for Emax: HEK293, relative to CCK control; for Emax / CCK1R PAM (IP-One) Score (activity score = normalized Emax × pEC50) / EC50: HEK-293 CCK1R cells; for Emax / CCK1R PAM (IP-One) Score (activity score = normalized Emax × pEC50): PAM format; for Emax / EC50: average ± SD; for EC50: PAM format with EC20 CCK; for CCK1R IP-One activity (in words): PAM and agonist formats
T1 sequence (P32238 1-428): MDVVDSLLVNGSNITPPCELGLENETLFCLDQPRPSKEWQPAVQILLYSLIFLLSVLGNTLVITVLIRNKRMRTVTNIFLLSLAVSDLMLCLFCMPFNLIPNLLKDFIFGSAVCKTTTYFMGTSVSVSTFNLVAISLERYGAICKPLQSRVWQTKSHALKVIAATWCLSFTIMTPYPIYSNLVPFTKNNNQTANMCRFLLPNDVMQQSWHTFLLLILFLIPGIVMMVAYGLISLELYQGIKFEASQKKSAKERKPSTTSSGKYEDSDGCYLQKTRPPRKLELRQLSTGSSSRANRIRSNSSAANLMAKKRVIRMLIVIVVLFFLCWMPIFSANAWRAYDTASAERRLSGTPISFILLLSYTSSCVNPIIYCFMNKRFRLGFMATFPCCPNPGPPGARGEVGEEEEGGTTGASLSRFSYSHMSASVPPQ
Experimental: (§1) For structure–activity relationship studies, we performed myo-inositol-1-phosphate (IP-One) accumulation assays with TR-FRET technology applied to the HEK-293 cell line overexpressing CCK1Rs, as we had described in our high throughput screening effort. In brief, thawed cryopreserved cell stocks were re-suspended in IP-One assay media consisting of phenol-red free DMEM (Corning, Corning, NY, USA, #17-205-CV) with 10% FBS, 1% penicillin (10,000 units)/streptomycin (10 mg) (Pen/Strep, Thermo Fisher Scientific, Waltham, MA, USA, Gibco #15140122), and 1% L-glutamine (200 mM) (Gibco #25030081) and diluted to required cell densities. Then, the cell suspension was dispensed into a 1536-well tissue culture microplate (Corning, #3727), and the plate was incubated overnight at 37 °C and 5% CO^2. After 16–20 h, DMSO or compounds were added with an Echo liquid handler (Labcyte, San Jose, CA, USA), resulting in a top final compound concentration of 50 µM diluted 2-fold for 16-point dose–responses. For the positive allosteric modulator (PAM) format, orthosteric stimulator (CCK) dilutions for control wells were prepared in assay media containing 150 mM lithium chloride (LiCl, 50 mM final, Sigma-Aldrich, St Louis, MO, USA, #L7026). After a 30 min incubation of test compounds at 37 °C and 5% CO2, orthosteric stimulator dilutions (for PAM format) or equivalent dilutions of DMSO (for agonist format) were added to designated wells using BioRaptr (Beckman Coulter, Brea, CA, USA). In addition, CCK control ligand dilutions were included on each test plate. After that, the plate was incubated for 1 h at 37 °C and 5% CO^2 and equilibrated to room temperature. Detection reagents from the IP-One Gq detection kit from Cisbio (Cisbio US Inc., Bedford, MA, USA, #62IPAPEJ) were added, and after 1 h at RT, IP-One content was measured with a PHERAstar FSX microplate reader (BMG Labtech, Ortenberg, Germany). Control ligand dose–responses were analyzed using GraphPad Prism 9.3.1 (San Diego, CA, USA) to validate adequate control and test well concentrations for positive allosteric modulation (PAM) and agonist formats. Dose–response curves were performed as 16-point 2-fold dilutions in duplicates in at least three independent experiments. Large data sets were uploaded and analyzed with CBIS (Chemical and Biology Information System software, ChemInnovation Software, Inc., San Diego, CA, USA). Further data analysis for detailed SAR studies was conducted using the D360 software (Certara).
(§2) The potency and efficacy data for these compounds were used to calculate their activity scores using the following formula: Activity Score = normalized Emax × pEC50. Normalized Emax represents the efficacy of the compound as a fractional response relative to that of the CCK control ligand. pEC50 represents the positive logarithmic value of compound EC50 concentrations in (M).

[2] = molecular target: T2, vasopressin-2 receptor (AVP2R) (Homo sapiens, UniProt P30518); assay: AVP2R cAMP HTRF accumulation assay; conditions: CHO-K1 AVP2R cells; for EC50 / Emax: PAM format with vasopressin, original hits: agonist and PAM data combined, average ± SD; for AVP2R PAM (cAMP) Score (activity score = normalized Emax × pEC50): PAM format
T2 construct: expressed in transfected cells; host or cells: CHO-K1 (PAM format); HEK-293 (agonist format)
T2 sequence (P30518 whole entry): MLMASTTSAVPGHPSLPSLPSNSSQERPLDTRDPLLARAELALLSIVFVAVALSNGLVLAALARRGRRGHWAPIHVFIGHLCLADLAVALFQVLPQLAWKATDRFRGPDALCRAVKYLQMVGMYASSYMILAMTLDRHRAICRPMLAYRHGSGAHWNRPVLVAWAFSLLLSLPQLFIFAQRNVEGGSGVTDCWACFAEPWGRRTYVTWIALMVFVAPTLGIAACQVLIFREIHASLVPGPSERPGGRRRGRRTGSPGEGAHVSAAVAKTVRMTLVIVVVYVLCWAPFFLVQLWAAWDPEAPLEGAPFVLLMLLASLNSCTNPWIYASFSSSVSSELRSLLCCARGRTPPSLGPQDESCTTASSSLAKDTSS
Experimental: Possible off-target biological effects. […] Here, we tested them at the vasopressin-2 receptor (AVP2R), representing a class A GPCR structurally related to CCK1R, which is coupled to Gs. The activity at AVP2R was tested using AVP2R-overexpressing CHO-K1 (PAM format) or HEK-293 (agonist format) cells, stimulating the cells with vasopressin. Original hits were tested in both agonist and PAM formats. Since all recognized compound responses were present in both formats, we continued to screen analogs in only the PAM format (also able to capture agonist effects) in CHO-K1 AVP2R cells for potential enhanced sensitivity. The dose–response data sets for original hits were combined, as the PAM and agonist effects were indistinguishable. In brief, arginine vasopressin (AVP) orthosteric stimulator dilutions and ligand and compound dose–response titrations in DMSO were transferred onto a 1536-well plate (Corning #3725) using an Echo liquid handler (Labcyte). Thawed cryopreserved cell stocks were diluted in stimulation buffer consisting of HBSS (Hank’s Balanced Salt Solution with Ca^2+ and Mg^2+, Gibco #24020117), 5 mM HEPES (hydroxyethyl piperazineethanesulfonic acid), 0.5 mM IBMX (3-isobutyl-1-methylxanthine, Sigma-Aldrich), and 0.075% BSA (7.5% DTPA-purified bovine serum albumin, PerkinElmer). The resulting cell suspension was added to the microplate and incubated with test compounds at room temperature for 30 min. Then, the detection reagents from the Cisbio cAMP Gs Dynamic HTRF detection kit were added. The plate was kept at room temperature for 30 min and read on a PHERAstar FSX microplate reader. Dose–response curves were performed as 16-point 2-fold dilutions in duplicate in at least two independent experiments.

CCK1R [3] = molecular target: T1, CCK1R; assay: IP-One accumulation TR-FRET assay, agonist format, HEK-293 CCK1R cells; parameters: expressed in transfected cells; host or cells: HEK-293; conditions: for Emax: HEK293, relative to CCK control, average ± SD, read-out: CCK1R Ago (IP-One) Emax
Experimental: as §1, §2

Emax (CCK1R [1]) [%]	CCK1R PAM (IP-One) Score (activity score = normalized Emax × pEC50) (CCK1R [1])	EC50 (CCK1R [1]) [µM]	EC50 [2] [µM]	Emax [2] [%]	CCK1R IP-One activity (in words) (CCK1R [1])	AVP2R PAM (cAMP) Score (activity score = normalized Emax × pEC50) [2]	CCK1R Ago (IP-One) Score (activity score = normalized Emax × pEC50) (CCK1R [3])	Emax (CCK1R [3]) [%]	SMILES
38 ± 11	1.79	14.5 ± 5.3	8.6 ± 5.4	74 ± 12					CC(C)Cc1nc2oc3c(NCCN(C)C)ncnc3c2c2c1CCCC2 [CMP-25]
36 ± 20	1.5 and 1.49	31.3 ± 14.9	7.9 ± 2.5	31		1.6 and 1.59	0	0	CN(C)CCNc1ncnc2c1sc1nc(N3CCCCC3)c3c(c12)CCCC3 [CMP-35]
53 ± 6	2.7 and 2.66	7.5 ± 2.9	8.1 ± 8.5	32 ± 11		1.6 and 1.61			CCCCc1nc2sc3c(NCCCO)ncnc3c2c2c1CCC2 [CMP-5]
50 ± 32	2.0 and 1.99	23 ± 17.9	22.4 ± 9.2	26 ± 1		1.2			CN(C)CCCNc1nnnc2c1sc1nc(N3CCOCC3)c3c(c12)CCCC3 [CMP-17]
				0		0	0	0	COc1ccc(CCNc2ncnc3c2oc2nc(C(C)C)c4c(c23)CCC4)cc1OC [CMP-62]
					showed no agonist or PAM activity		0	0	CN(C)CCCNc1ncnc2c1sc1nc(N3CCOCC3)c3c(c12)CCC3 [CMP-43]
60 ± 23	2.8 and 2.77	16.6 ± 15.9	14.8 ± 10.3	34 ± 5.3		1.6 and 1.64			c1nc(N2CCNCC2)c2sc3nc(N4CCOCC4)c4c(c3c2n1)CCCC4 [CMP-3]
51 ± 16	2.3 and 2.28	22.5 ± 9	21.7 ± 11.3	46 ± 9		2.2 and 2.15			CCN(CC)CCCNc1ncnc2c1oc1nc(CC(C)C)c3c(c12)CCC3 [CMP-10]
				0		0	0	0	CCCc1nc2sc3c(NCCCO)ncnc3c2c2c1CCC2 [CMP-56]
			26.2 ± 2.4	43 ± 7		2.0 and 1.96	0		CC(C)c1nc2sc3c(NCCN4CCOCC4)ncnc3c2c2c1CCCC2 [CMP-54]
46 ± 7	2.2 and 2.23	14.1 ± 4.3	11.4 ± 3.6	66 ± 3		3.3 and 3.28			CCCc1nc2oc3c(N4CCNCC4)ncnc3c2c2c1CCCC2 [CMP-12]
						0	0		Cc1nc2sc3c(NCCN4CCOCC4)ncnc3c2c2c1CCCC2 [CMP-61]
0	0				displayed no effects		0	0	Sc1nnnc2c1sc1nc(N3CCOCC3)c3c(c12)CCCC3 [CMP-52]
51 ± 43	1.9 and 1.94	18.2 ± 8.6					0	0	CN1CCN(c2ncnc3c2sc2nc(N4CCOCC4)c4c(c23)CCCC4)CC1 [CMP-19]
				0		0	0	0	CCCc1nc2oc3c(NCCCO)ncnc3c2c2c1CCCC2 [CMP-58]
				0		0	0	0	CCCc1nc2oc3c(NCc4ccncc4)ncnc3c2c2c1CCCC2 [CMP-60]
				0		0	0	0	CC(C)c1nc2oc3c(N4CCC(Cc5ccccc5)CC4)ncnc3c2c2c1CCC2 [CMP-63]
41 ± 15	1.8 and 1.76	30.2 ± 11.2	3.7 ± 0.5	16 ± 4		0.9 and 0.87			c1ccc(-c2nc3sc4c(NCCN5CCOCC5)ncnc4c3c3c2CCCC3)cc1 [CMP-26]
				0		0	0	0	CCCCNc1ncnc2c1sc1nc(CCC)c3c(c12)CCCC3 [CMP-57]
				0		0	0	0	CCCc1nc2oc3c(N(C)CCO)ncnc3c2c2c1CCCC2 [CMP-39]

SMILES	Emax (CCK1R [1]) [%]	CCK1R PAM (IP-One) Score (activity score = normalized Emax × pEC50) (CCK1R [1])	EC50 (CCK1R [1]) [µM]	EC50 [2] [µM]	Emax [2] [%]	CCK1R IP-One activity (in words) (CCK1R [1])	AVP2R PAM (cAMP) Score (activity score = normalized Emax × pEC50) [2]	CCK1R Ago (IP-One) Score (activity score = normalized Emax × pEC50) (CCK1R [3])	Emax (CCK1R [3]) [%]
C=CCNc1ncnc2c1sc1nc(N3CCOCC3)c3c(c12)CCCC3 [CMP-50]	0	0			0	None of these analogs showed any CCK1R activity	0	0	0
